The source of these data is patent US20240132431A1, “METHOD FOR ALKYLATING ACIDIC FUNCTIONAL GROUP” (Chugai Seiyaku Kabushiki Kaisha, priority 2021, published 2024).

This assay deals with T1, Bcl-2 protein (Recombinant Human Bcl-2 Protein) (Homo sapiens, UniProt P10415).
T1 construct: purchased Novus NBP2-34889
The assay is described as follows: Binding evaluation of mixture library compounds to Bcl-2 using AS-MS (affinity selection mass spectrometry). To be noted: AS-MS, mixture library, Bcl-2, ASMS Ratio(%)=(A−C)/B×100; for ASMS ratio (%) n = 1: replicate n = 1; for ASMS ratio (%) n = 2: replicate n = 2. Put shortly:
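Affinity selection MS: Bcl-2 20 μM + 1200-cpd mixture, […]/cpd, Tris pH 7.4 buffer w/ Tween-20, DTT; 1 h 23° C dark; P-2 spin SEC; MeCN/MeOH extraction; RP LC/MS. ASMS Ratio(%) = (A−C)/B×100.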

T1 sequence (P10415 whole entry): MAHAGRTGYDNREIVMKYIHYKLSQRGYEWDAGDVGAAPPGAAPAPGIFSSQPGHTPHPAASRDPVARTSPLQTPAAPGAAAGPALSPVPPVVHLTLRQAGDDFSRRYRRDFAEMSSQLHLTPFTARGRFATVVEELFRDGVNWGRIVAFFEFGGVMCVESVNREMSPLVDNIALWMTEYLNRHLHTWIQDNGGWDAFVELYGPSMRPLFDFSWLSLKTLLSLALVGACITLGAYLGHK

For `CCOc1cccc(-c2ccc(C(=O)N3CCN(c4ccc(C(=O)NS(=O)(=O)CC56CC7CC(CC(C7)C5)C6)cc4)CC3)c3ccccc23)c1` [B2A035-01, N-(1-Adamantylmethylsulfonyl)-4-[4-[4-(3-ethoxyphenyl)naphthalene-1-carbonyl]piperazin-1-yl]benzamide], the “ASMS ratio (%) n = 1” value was determined as 6.2% and the “ASMS ratio (%) n = 2” value is −9.8%.
The matching figures for `CCOc1cncc(-c2ccc(C(=O)N3CCN(c4ccc(C(=O)NS(=O)(=O)CC56CC7CC(CC(C7)C5)C6)cc4)CC3)c3ccccc23)c1` [B2A036-01, N-(1-Adamantylmethylsulfonyl)-4-[4-[4-(5-ethoxypyridin-3-yl)naphthalene-1-carbonyl]piperazin-1-yl]benzamide]: 2.0% and −0.4%.
On to `CCOc1cccc(-c2cc(C(=O)N3CCN(c4ccc(C(=O)NS(=O)(=O)CC56CC7CC(CC(C7)C5)C6)cc4)CC3)cc(C(C)(C)C)c2)c1` [B2A037-01, N-(1-Adamantylmethylsulfonyl)-4-[4-[3-tert-butyl-5-(3-ethoxyphenyl)benzoyl]piperazin-1-yl]benzamide], for which the “ASMS ratio (%) n = 1” value is given as 3.0% and the “ASMS ratio (%) n = 2” value worked out at 0.0%.
On to `CCOc1cncc(-c2cc(C(=O)N3CCN(c4ccc(C(=O)NS(=O)(=O)CC56CC7CC(CC(C7)C5)C6)cc4)CC3)cc(C(C)(C)C)c2)c1` [B2A038-01, N-(1-Adamantylmethylsulfonyl)-4-[4-[3-tert-butyl-5-(5-ethoxypyridin-3-yl)benzoyl]piperazin-1-yl]benzamide], for which the “ASMS ratio (%) n = 1” value amounted to 1.8% and the “ASMS ratio (%) n = 2” value was −3.5%.
On to `CCOc1cccc(-c2cc(C(=O)N3CCN(c4ccc(C(=O)NS(=O)(=O)CC56CC7CC(CC(C7)C5)C6)cc4)CC3)cc(C(F)(F)F)c2)c1` [B2A039-01, N-(1-Adamantylmethylsulfonyl)-4-[4-[3-(3-ethoxyphenyl)-5-(trifluoromethyl)benzoyl]piperazin-1-yl]benzamide], for which the “ASMS ratio (%) n = 1” value worked out at 7.4% and the “ASMS ratio (%) n = 2” value was −10.4%.
As for `CCOc1cncc(-c2cc(C(=O)N3CCN(c4ccc(C(=O)NS(=O)(=O)CC56CC7CC(CC(C7)C5)C6)cc4)CC3)cc(C(F)(F)F)c2)c1` [B2A040-01, N-(1-Adamantylmethylsulfonyl)-4-[4-[3-(5-ethoxypyridin-3-yl)-5-(trifluoromethyl)benzoyl]piperazin-1-yl]benzamide], the “ASMS ratio (%) n = 1” value amounted to 0.0% and the “ASMS ratio (%) n = 2” value stood at 0.0%.
With `CCOc1cccc(C#Cc2cc(C(=O)N3CCN(c4ccc(C(=O)NS(=O)(=O)CC56CC7CC(CC(C7)C5)C6)cc4)CC3)cc(C(F)(F)F)c2)c1` [B2A041-01, N-(1-Adamantylmethylsulfonyl)-4-[4-[3-[2-(3-ethoxyphenyl)ethynyl]-5-(trifluoromethyl)benzoyl]piperazin-1-yl]benzamide], the “ASMS ratio (%) n = 1” value is given as 0.0% and the “ASMS ratio (%) n = 2” value is recorded as −3.7%.
For the compound `CCOc1cncc(C#Cc2cc(C(=O)N3CCN(c4ccc(C(=O)NS(=O)(=O)CC56CC7CC(CC(C7)C5)C6)cc4)CC3)cc(C(F)(F)F)c2)c1` [B2A042-01, N-(1-Adamantylmethylsulfonyl)-4-[4-[3-[2-(5-ethoxypyridin-3-yl)ethynyl]-5-(trifluoromethyl)benzoyl]piperazin-1-yl]benzamide], the “ASMS ratio (%) n = 1” value is 10.1% and the “ASMS ratio (%) n = 2” value was −0.9%.
For the compound `CCOc1cccc(-c2cnn(-c3cc(C(=O)N4CCN(c5ccc(C(=O)NS(=O)(=O)CC67CC8CC(CC(C8)C6)C7)cc5)CC4)cc(C(F)(F)F)c3)c2)c1` [B2A043-01, N-(1-Adamantylmethylsulfonyl)-4-[4-[3-[4-(3-ethoxyphenyl)pyrazol-1-yl]-5-(trifluoromethyl)benzoyl]piperazin-1-yl]benzamide], the “ASMS ratio (%) n = 1” value was 14.0% and the “ASMS ratio (%) n = 2” value worked out at 4.4%.
